Reference: ChEMBL document CHEMBL3885881, “DrugMatrix”

Species: Rattus norvegicus
Experiment: DrugMatrix - Regimen: Daily Repeat
Type: toxicity, organism-based, Sprague-Dawley
Parameters: regimen Daily Repeat, gender Male, age 6-8 weeks
Settings: in vivo, vehicle 100 % SALINE; for SODIUM / TOTAL BILIRUBIN / TOTAL PROTEIN / URIC ACID / ALANINE AMINOTRANSFERASE / ALBUMIN / ALKALINE PHOSPHATASE / ASPARTATE AMINOTRANSFERASE / BLOOD UREA NITROGEN / CARBON DIOXIDE / CHLORIDE / CHOLESTEROL / CREATINE PHOSPHOKINASE / CREATININE / GLUCOSE / LACTATE DEHYDROGENASE / LIPASE / PHOSPHORUS / POTASSIUM: tissue Plasma; for ABSOLUTE BASOPHIL / ABSOLUTE EOSINOPHIL / ABSOLUTE LYMPHOCYTE / ABSOLUTE MONOCYTE / ABSOLUTE SEGMENTED NEUTROPHIL / BASOPHIL / EOSINOPHIL / ERYTHROCYTE COUNT / HEMATOCRIT / HEMOGLOBIN / LEUKOCYTE COUNT / LYMPHOCYTE / MEAN CORPUSCULAR HEMOGLOBIN / MEAN CORPUSCULAR HEMOGLOBIN CONCENTRATION / MEAN CORPUSCULAR VOLUME / MONOCYTE / NEUTROPHIL / NUCLEATED RED BLOOD CELLS / PLATELET COUNT: tissue Blood
[1] = ip, 40 mg/kg, […], route intraperitoneal, dose level High, time 28 day
[2] = iv, 41 mg/kg, 72 h, dose level High, time 3 day
[3] = iv, 41 mg/kg, 120 h, dose level High, time 5 day
[4] = iv, […], 72 h, dose 4.1 mg/Kg, dose level Low, time 3 day
[5] = iv, […], 120 h, dose 4.1 mg/Kg, dose level Low, time 5 day

CCN[C@@H]1C[C@H](N)[C@@H](O[C@H]2OC(CN)=CC[C@H]2N)[C@H](O)[C@H]1O[C@H]1OC[C@](C)(O)[C@H](NC)[C@H]1O [NETILMICIN]
SODIUM [1]: 152.1 MEQ/L | TOTAL BILIRUBIN [1]: 0.18 mg/dL | TOTAL PROTEIN [1]: 6.45 G/DL | URIC ACID [1]: 1.03 mg/dL | ABSOLUTE BASOPHIL [2]: 0 CELLS/uL | ABSOLUTE EOSINOPHIL [2]: 0 CELLS/uL | ABSOLUTE LYMPHOCYTE [2]: 13244.67 CELLS/uL | ABSOLUTE MONOCYTE [2]: 92.33 CELLS/uL | ABSOLUTE SEGMENTED NEUTROPHIL [2]: 896.33 CELLS/uL | BASOPHIL [2]: 0% | EOSINOPHIL [2]: 0% | ERYTHROCYTE COUNT [2]: 5.54 x10E6/uL | HEMATOCRIT [2]: 34.4% | HEMOGLOBIN [2]: 13.9 G/DL | LEUKOCYTE COUNT [2]: 14.23 x10E3/uL | LYMPHOCYTE [2]: 93% | MEAN CORPUSCULAR HEMOGLOBIN [2]: 25.07 pg | MEAN CORPUSCULAR HEMOGLOBIN CONCENTRATION [2]: 40.4 G/DL | MEAN CORPUSCULAR VOLUME [2]: 62.1 fL | MONOCYTE [2]: 0.67% | NEUTROPHIL [2]: 6.33% | NUCLEATED RED BLOOD CELLS [2]: 0 /100WBC | PLATELET COUNT [2]: 1289.67 x10E3/uL | ALANINE AMINOTRANSFERASE [2]: 47 u/L | ALBUMIN [2]: 4.27 G/DL | ALKALINE PHOSPHATASE [2]: 408.33 u/L | ASPARTATE AMINOTRANSFERASE [2]: 78.67 u/L | BLOOD UREA NITROGEN [2]: 16.33 mg/dL | CARBON DIOXIDE [2]: 32 mmol/L | CHLORIDE [2]: 102.67 MEQ/L | CHOLESTEROL [2]: 64.33 mg/dL | CREATINE PHOSPHOKINASE [2]: 176 u/L | CREATININE [2]: 0.16 mg/dL | GLUCOSE [2]: 156.33 mg/dL | LACTATE DEHYDROGENASE [2]: 111.67 u/L | LIPASE [2]: 9.33 u/L | PHOSPHORUS [2]: 12.53 mg/dL | POTASSIUM [2]: 7.26 MEQ/L | SODIUM [2]: 144.53 MEQ/L | TOTAL BILIRUBIN [2]: 0.23 mg/dL | TOTAL PROTEIN [2]: 5.97 G/DL | URIC ACID [2]: 1.77 mg/dL | ABSOLUTE BASOPHIL [3]: 0 CELLS/uL | ABSOLUTE EOSINOPHIL [3]: 0 CELLS/uL | ABSOLUTE LYMPHOCYTE [3]: 14425.67 CELLS/uL | ABSOLUTE MONOCYTE [3]: 210.67 CELLS/uL | ABSOLUTE SEGMENTED NEUTROPHIL [3]: 463.67 CELLS/uL | BASOPHIL [3]: 0% | EOSINOPHIL [3]: 0% | ERYTHROCYTE COUNT [3]: 5.76 x10E6/uL | HEMATOCRIT [3]: 36.3% | HEMOGLOBIN [3]: 14.47 G/DL | LEUKOCYTE COUNT [3]: 15.1 x10E3/uL | LYMPHOCYTE [3]: 95.67% | MEAN CORPUSCULAR HEMOGLOBIN [3]: 25.1 pg | MEAN CORPUSCULAR HEMOGLOBIN CONCENTRATION [3]: 39.87 G/DL | MEAN CORPUSCULAR VOLUME [3]: 62.97 fL | MONOCYTE [3]: 1.33% | NEUTROPHIL [3]: 3% | NUCLEATED RED BLOOD CELLS [3]: 0.33 /100WBC | PLATELET COUNT [3]: 1375.67 x10E3/uL | ALANINE AMINOTRANSFERASE [3]: 52 u/L | ALBUMIN [3]: 4.33 G/DL | ALKALINE PHOSPHATASE [3]: 313.33 u/L | ASPARTATE AMINOTRANSFERASE [3]: 87.67 u/L | BLOOD UREA NITROGEN [3]: 18.33 mg/dL | CARBON DIOXIDE [3]: 35 mmol/L | CHLORIDE [3]: 100.33 MEQ/L | CHOLESTEROL [3]: 60.67 mg/dL | CREATINE PHOSPHOKINASE [3]: 309.33 u/L | CREATININE [3]: 0.19 mg/dL | GLUCOSE [3]: 145.33 mg/dL | LACTATE DEHYDROGENASE [3]: 281 u/L | LIPASE [3]: 10.33 u/L | PHOSPHORUS [3]: 11.93 mg/dL | POTASSIUM [3]: 7.18 MEQ/L | SODIUM [3]: 145.03 MEQ/L | TOTAL BILIRUBIN [3]: 0.17 mg/dL | TOTAL PROTEIN [3]: 6.23 G/DL | URIC ACID [3]: 1.8 mg/dL | ABSOLUTE BASOPHIL [4]: 0 CELLS/uL | ABSOLUTE EOSINOPHIL [4]: 0 CELLS/uL | ABSOLUTE LYMPHOCYTE [4]: 4768 CELLS/uL | ABSOLUTE MONOCYTE [4]: 54 CELLS/uL | ABSOLUTE SEGMENTED NEUTROPHIL [4]: 578 CELLS/uL | BASOPHIL [4]: 0% | EOSINOPHIL [4]: 0% | ERYTHROCYTE COUNT [4]: 5.02 x10E6/uL | HEMATOCRIT [4]: 31.53% | HEMOGLOBIN [4]: 12.37 G/DL | LEUKOCYTE COUNT [4]: 5.4 x10E3/uL | LYMPHOCYTE [4]: 88.33% | MEAN CORPUSCULAR HEMOGLOBIN [4]: 24.67 pg | MEAN CORPUSCULAR HEMOGLOBIN CONCENTRATION [4]: 39.23 G/DL | MEAN CORPUSCULAR VOLUME [4]: 62.83 fL | MONOCYTE [4]: 1% | NEUTROPHIL [4]: 10.67% | NUCLEATED RED BLOOD CELLS [4]: 0.33 /100WBC | PLATELET COUNT [4]: 1171 x10E3/uL | ALANINE AMINOTRANSFERASE [4]: 52.33 u/L | ALBUMIN [4]: 4.23 G/DL | ALKALINE PHOSPHATASE [4]: 370.33 u/L | ASPARTATE AMINOTRANSFERASE [4]: 91.67 u/L | BLOOD UREA NITROGEN [4]: 16 mg/dL | CARBON DIOXIDE [4]: 33.67 mmol/L | CHLORIDE [4]: 99.33 MEQ/L | CHOLESTEROL [4]: 62 mg/dL | CREATINE PHOSPHOKINASE [4]: 447.67 u/L | CREATININE [4]: 0.17 mg/dL | GLUCOSE [4]: 154 mg/dL | LACTATE DEHYDROGENASE [4]: 115.33 u/L | LIPASE [4]: 9.33 u/L | PHOSPHORUS [4]: 10.83 mg/dL | POTASSIUM [4]: 6.02 MEQ/L | SODIUM [4]: 143.23 MEQ/L | TOTAL BILIRUBIN [4]: 0.23 mg/dL | TOTAL PROTEIN [4]: 6.03 G/DL | URIC ACID [4]: 0.8 mg/dL | ABSOLUTE BASOPHIL [5]: 0 CELLS/uL | ABSOLUTE EOSINOPHIL [5]: 0 CELLS/uL | ABSOLUTE LYMPHOCYTE [5]: 13577.67 CELLS/uL | ABSOLUTE MONOCYTE [5]: 137 CELLS/uL | ABSOLUTE SEGMENTED NEUTROPHIL [5]: 1018.67 CELLS/uL | BASOPHIL [5]: 0% | EOSINOPHIL [5]: 0% | ERYTHROCYTE COUNT [5]: 5.81 x10E6/uL | HEMATOCRIT [5]: 36.13% | HEMOGLOBIN [5]: 14.33 G/DL | LEUKOCYTE COUNT [5]: 14.73 x10E3/uL | LYMPHOCYTE [5]: 92% | MEAN CORPUSCULAR HEMOGLOBIN [5]: 24.7 pg | MEAN CORPUSCULAR HEMOGLOBIN CONCENTRATION [5]: 39.7 G/DL | MEAN CORPUSCULAR VOLUME [5]: 62.17 fL | MONOCYTE [5]: 1% | NEUTROPHIL [5]: 7% | NUCLEATED RED BLOOD CELLS [5]: 0 /100WBC | PLATELET COUNT [5]: 1276.33 x10E3/uL | ALANINE AMINOTRANSFERASE [5]: 46.33 u/L | ALBUMIN [5]: 4.3 G/DL | ALKALINE PHOSPHATASE [5]: 383.33 u/L | ASPARTATE AMINOTRANSFERASE [5]: 80.67 u/L | BLOOD UREA NITROGEN [5]: 16 mg/dL | CARBON DIOXIDE [5]: 31.67 mmol/L | CHLORIDE [5]: 101.33 MEQ/L | CHOLESTEROL [5]: 83.33 mg/dL | CREATINE PHOSPHOKINASE [5]: 216.67 u/L | CREATININE [5]: 0.17 mg/dL | GLUCOSE [5]: 166.33 mg/dL | LACTATE DEHYDROGENASE [5]: 180 u/L | LIPASE [5]: 9.33 u/L | PHOSPHORUS [5]: 13.33 mg/dL | POTASSIUM [5]: 7.09 MEQ/L | SODIUM [5]: 145.07 MEQ/L | TOTAL BILIRUBIN [5]: 0.13 mg/dL | TOTAL PROTEIN [5]: 6.3 G/DL | URIC ACID [5]: 1.93 mg/dL
